These results are taken from ChEMBL document CHEMBL1201862, “PubChem BioAssay data set” (2004).

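Each compound was tested at five concentrations against cells in 96-well plates for 48 hours. GI50 is the concentration that inhibits growth by half.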 Active and inactive are the calls of the source. No stated cut-off is given here; in the data, active = GI50 up to about 1.1 µM and inactive = higher.

Among the test systems are DMS-114; XF498; SNB-78; KM-20L2; DU-145; BT-549; T47D; LXFL 529; RXF 631.
Common to all, as to test: inhibition of tumour cell growth, NCI panel, 48 h

On to `O=C1CSc2sc(=S)sc2S1`, for which the GI50 was > 100 µM (inactive) with DMS-114, > 100 µM (inactive) in the experiment with XF498, > 63.7 µM (inactive) in the experiment on SNB-78 and > 100 µM (inactive) in the experiment with KM-20L2.
As to `O=C(c1ccc(Cl)cc1)N(C(=O)N1CCC(c2ccccc2)CC1)c1ccccc1`, the GI50 is 59 µM (inactive) with DU-145, 19.5 µM (inactive) in the experiment with BT-549 and 11.1 µM (inactive) in the experiment on T47D.
In the case of `CC(=O)OCC1=C(COC(C)=O)C(=O)c2c(O)ccc(O)c2C1=O`, the GI50 in the experiment with DMS-114 is 11.2 µM (inactive); in the experiment with LXFL 529, 2.55 µM (inactive); with SNB-78, 3.78 µM (inactive); in the experiment on KM-20L2 it was 13.4 µM (inactive).
As for `O=C(Nc1nc2ncn(CCNCc3ccccc3)c2c(=O)[nH]1)c1ccccc1`, the GI50 was > 100 µM (inactive) with DMS-114; 41.5 µM (inactive) with RXF 631; > 100 µM (inactive) in the experiment on LXFL 529; > 100 µM (inactive) in the experiment on SNB-78; > 100 µM (inactive) in the experiment with KM-20L2.
`Cc1c(N2C(=O)CS(=O)(=O)C2c2cccc(Oc3ccccc3)c2)c(=O)n(-c2ccccc2)n1C` (stereo unspecified): the GI50 in the experiment on DU-145 was 71.6 µM (inactive); with BT-549 it was 29.5 µM (inactive); in the experiment with T47D it was 29 µM (inactive).
On to `S=c1sc2cscc2s1`, for which the GI50 was 22.8 µM (inactive) with DMS-114; 24.9 µM (inactive) with RXF 631; 20.2 µM (inactive) in the experiment with LXFL 529; 23.3 µM (inactive) with XF498; 30.5 µM (inactive) in the experiment on SNB-78; 27 µM (inactive) in the experiment on KM-20L2.
For the compound `NC(=S)N/N=C1\C(=O)Nc2c(Cl)cc(Cl)cc21`, the GI50 in the experiment with BT-549 is 21 µM (inactive).
In the case of `C1#Cc2ccccc2OCCOc2ccccc2C#Cc2ccccc2OCCOc2ccccc21`, the GI50 with DU-145 was > 100 µM (inactive); in the experiment with BT-549, 16.6 µM (inactive); in the experiment with T47D, 49.5 µM (inactive).
With `Cc1cc(C)c2c(n1)S(=O)(=O)N(CCCN1CCN(c3cccc(C(F)(F)F)c3)CC1)C(C(=O)c1ccccc1)=C2O`, the figures for the GI50 with DU-145, with BT-549 and with T47D were 13.4 µM (inactive), 16 µM (inactive) and 13.1 µM (inactive), respectively.
On to `CCN(CC)CCNCc1cc(Cl)cc2c1OCOC2`, for which the GI50 with DU-145 and with T47D was > 10 µM (inactive) throughout.
With `CN(C)c1ccc(/C=N/c2ccc(Oc3ccc(Cl)cc3)c(Cl)c2)cc1`, the GI50 with DU-145 is 27.5 µM (inactive); in the experiment with BT-549 it was 16.6 µM (inactive); in the experiment with T47D, 16.8 µM (inactive).
`C/C=C1\NC(=O)[C@H]2CSSCCC=C[C@H](CC(=O)N[C@H](C(C)C)C(=O)N2)OC(=O)[C@H](C(C)C)NC1=O`: the GI50 in the experiment with DMS-114 was 0.00291 µM (active); with DU-145, 4.55e-05 µM (active); in the experiment with T47D, 4.39e-05 µM (active); with XF498, 0.00285 µM (active); with SNB-78 it was 0.0446 µM (active); with KM-20L2 it was 0.00288 µM (active).
In the case of `O=C1Nc2ccccc2Nc2ccncc21`, the GI50 with DMS-114, in the experiment on SNB-78 and in the experiment on KM-20L2 was > 100 µM (inactive) each time.
Regarding `Cc1[nH]c(=O)[nH]c(=O)c1/C=C/C(=O)NC(CO)C[S+]([O-])C[S+](C)[O-]` (stereo unspecified), the GI50 was 11.1 µM (inactive) in the experiment with DMS-114, 1.74 µM (inactive) in the experiment with XF498, 11.7 µM (inactive) in the experiment on SNB-78 and 36.9 µM (inactive) in the experiment with KM-20L2.
As to `CC1=NN(C(=O)c2ccc(Cl)cc2)C(=O)C1/N=N/c1ccc(S(=O)(=O)Nc2ncccn2)cc1` (stereo unspecified), the GI50 in the experiment with DU-145, in the experiment on BT-549 and in the experiment on T47D was > 100 µM (inactive) each time.
With `COc1ccc2[nH]c(Cl)c(/C=C3/C(=O)Nc4cc(C)c(OC)cc43)c2c1`, the GI50 was 14.3 µM (inactive) in the experiment on DU-145, 3.2 µM (inactive) with BT-549 and 5.96 µM (inactive) in the experiment on T47D.
For `OCc1nnn2c1CCC2`, the GI50 with LXFL 529, in the experiment with XF498, in the experiment on SNB-78 and with KM-20L2 was > 100 µM (inactive) throughout.
On to `Oc1nc(-c2ccccc2)cc(-c2ccccc2O)n1`, for which the GI50 in the experiment with DMS-114 is 58.5 µM (inactive); in the experiment with LXFL 529, 50.4 µM (inactive); in the experiment with XF498, 65 µM (inactive); in the experiment with SNB-78, > 100 µM (inactive); in the experiment on KM-20L2 it was 67.5 µM (inactive).
On to `C=Cc1cc2c(cc1O)CC[C@@H]1[C@@H]2CC[C@]2(C)[C@@H](O)CC[C@@H]12`, for which, in the experiment with T47D, the GI50 was 8.79 µM (inactive).
As to `CC12CC3(C)CC(C)(C1)CC(N=[N+]=[N-])(C2)C3`, the GI50 with DMS-114, in the experiment with RXF 631, in the experiment with LXFL 529, in the experiment on XF498 and with SNB-78 was > 100 µM (inactive) in each case.
`COc1ccc(C2=C(Cl)c3cc(OC)c(OC)cc3C2Cl)cc1` (stereo unspecified): the GI50 with DMS-114 was 14.1 µM (inactive); with DU-145, 17.9 µM (inactive); in the experiment with BT-549, 3.78 µM (inactive); with T47D, 13.3 µM (inactive); with LXFL 529 it was 13.2 µM (inactive); in the experiment with XF498 it was < 0.01 µM (active). Moreover, the GI50 with SNB-78 was 17.9 µM (inactive); in the experiment with KM-20L2 it was 15.9 µM (inactive).
For the compound `CN(C)C(=S)/N=c1\ss/c(=N\S(=O)(=O)c2ccccc2)n1-c1ccccc1`, the GI50 in the experiment with DMS-114 was 2.08 µM (inactive); in the experiment on RXF 631, > 100 µM (inactive); with LXFL 529, 0.0481 µM (active); in the experiment with XF498, 19.5 µM (inactive); in the experiment on SNB-78, 29 µM (inactive).
As to `O=C1C(c2ccc(C3=[N+]([O-])c4cc([N+](=O)[O-])ccc4C3=O)cc2)=[N+]([O-])c2cc([N+](=O)[O-])ccc21`, the GI50 is > 10 µM (inactive) in the experiment on DMS-114; > 10 µM (inactive) in the experiment on LXFL 529; > 10 µM (inactive) in the experiment on XF498; 8.91 µM (inactive) in the experiment on SNB-78; > 10 µM (inactive) in the experiment on KM-20L2.
In the case of `CCCO[C@@H]1[C@@H](OC(C)=O)[C@@H](OC(C)=O)C(C)(C)/C=C/[C@H](C)C(=O)[C@@]2(OC(C)=O)C[C@@](C)(OC(C)=O)[C@H](OC(C)=O)[C@@H]2[C@H]2OC(=O)CC[C@@]12OC(=O)c1ccccc1`, the results for the GI50 in the experiment with DU-145, with BT-549 and in the experiment with T47D were > 25 µM (inactive), 22.9 µM (inactive) and > 25 µM (inactive), respectively.
Take `COC(=O)C(Cc1c[nH]c2ccccc12)NC(=O)c1ccc(-c2ccc(Cl)cc2Cl)o1` (stereo unspecified): the GI50 in the experiment with DU-145 is 71.6 µM (inactive); with BT-549, > 100 µM (inactive); in the experiment on T47D it was 27.5 µM (inactive).
For the compound `Cc1nc2ccccc2c(=O)n1/N=C(\N=N\c1cc(Cl)ccc1Cl)c1ccc(N(C)C)cc1`, the GI50 in the experiment on DMS-114 was 22.8 µM (inactive); with LXFL 529, 29.9 µM (inactive); with XF498, 2.79 µM (inactive); with KM-20L2 it was > 100 µM (inactive).
As to `c1csc(-c2ccc(-c3cccs3)c3nsnc23)c1`, the GI50 is 33.8 µM (inactive) with DU-145, > 52.7 µM (inactive) in the experiment with BT-549 and 0.141 µM (active) in the experiment with T47D.
With `Cc1nc(Nc2nc3ccccc3[nH]2)[nH]c(=O)c1CCO`, the GI50 in the experiment with DU-145 was 61.7 µM (inactive); with BT-549 it was > 100 µM (inactive); in the experiment on T47D, 7.6 µM (inactive).
On the same counts, the results for `CO/N=C1/c2sccc2[C@H](NC(=O)CNC(=O)OC(C)(C)C)[C@@H]1O` are > 100 µM (inactive), > 100 µM (inactive) and > 100 µM (inactive).
On the same counts, the results for `S=c1nc(Nc2ccc(Br)cc2)c2c3c(sc2[nH]1)CN(N1CCc2c(sc4[nH]c(=S)nc(Nc5ccc(Br)cc5)c24)C1)CC3` are 33.7 µM (inactive), > 50 µM (inactive) and 8.79 µM (inactive).
On the same counts, the results for `CCC(=O)NC(OCC1(CC)COC1)(C(F)(F)F)C(F)(F)F` are > 100 µM (inactive), > 100 µM (inactive) and > 100 µM (inactive).
As to `CC(C)(C)NC(=S)N/N=C/c1ccccn1`, the GI50 in the experiment on DU-145 is 2.04 µM (inactive); in the experiment on BT-549 it was 18.3 µM (inactive); with T47D it was < 0.01 µM (active).
Regarding `CC(C)CCCC(C)[C@H]1CC[C@H]2[C@@H]3CC[C@H]4C[C@@H](CCC=C(c5cc(Cl)c(O)c(C(=O)OC(C)(C)C)c5)c5cc(Cl)c(O)c(C(=O)OC(C)(C)C)c5)CC[C@]4(C)[C@H]3CC[C@]12C` (stereo partly specified), the GI50 in the experiment with DU-145, in the experiment with BT-549 and in the experiment with T47D was > 50 µM (inactive) each time.
In the case of `COC(=O)c1cc(C)ccc1CC(Cc1cccc(C)c1)C(=O)OC` (stereo unspecified), the GI50 in the experiment on DU-145 is 92.9 µM (inactive); in the experiment with BT-549 it was > 100 µM (inactive); with T47D, > 100 µM (inactive).
For `COc1c(Cl)ccc(Cl)c1C(=O)NNC(=O)c1c(Cl)c(Cl)c(Cl)c(Cl)c1-c1nc2cc(C(=O)c3ccccc3)ccc2[nH]1`, the GI50 is > 100 µM (inactive) with DU-145, 67.3 µM (inactive) with BT-549 and 15.5 µM (inactive) in the experiment on T47D.
